Laboratory results: patent US20220356525A1, “METHODS OF DETERMINING WHETHER PATIENTS SUFFERING FROM ACUTE MYELOID LEUKEMIA WILL ACHIEVE A RESPONSE TO AN MYC-TARGETING THERAPY” (INSERM (INSTITUT NATIONAL DE LA SANTÉ ET DE LA RECHERCHE …, priority 2019, published 2022)

How the values were obtained:
IMS-M2 and U937 cells = settings: 50 μM 5-CH3 THF; MTHFR-directed shRNAs
[1] = test system: CRISPR/Cas9-edited KG1a clones; experiment: OTX015 sensitivity and colony formation of CRISPR/Cas9-edited KG1a clones with MTHFR variants; format: cell-based, human; settings: 50 μM 5-CH3 THF; 677 TT or 1298 CC clones versus wild-type
Excerpt: Error bars represent mean±SD. Experiment performed at least two independent times.
(§1) Error bars represent mean±SD.
Additional information is provided in the supplementary material and methods section.
Finally, we engineered a tractable MLL-AF9-driven mouse model of AML in which Mtfhr genotype status was either homozygous wild-type, heterozygous or homozygous knockout.

[2] = test system: MLL-translocated primary patient samples with AML; experiment: OTX015 sensitivity of primary AML patient samples; format: cell-based, human; settings: 50 μM 5-CH3 THF; three patient samples with altered MTHFR genotype
Description: as §1
(§2) To investigate further the relationship between folic acid starvation and increased BET inhibitor resistance, we compiled a panel of AML cell lines harboring diverse genetic alterations. […] The effect of folic acid removal was also evaluated in cell lines treated either with a second BET inhibitor, JQ1, or with THZ-1, a covalent inhibitor of CDK7, another key factor in transcriptional elongation at super-enhancer regions and a strong inhibitor of MYC expression (data not shown). […] Therefore, we studied selective suppression of BRD4 by short hairpin RNA (shRNA) in two AML cell lines.
Previous studies have extensively characterized two common MTHFR genetic variants, C677T and A1298C, encoding MTHFR enzyme variants with reduced activity, resulting in hyperhomocysteinemia in human carriers. In particular, the homozygous variant 677 TT and 1298 CC genotypes are present in ˜10% of Caucasians and display only 30% and 60% of the homozygous wild-type 677 CC and 1298 AA enzyme activities, respectively (16, 17). […] Five KG1a clones either 1) wild-type 677 CC and 1298 AA, 2) heterozygous 677 CT or 1298 AC, or 3) homozygous 677 TT or 1298 CC, were selected and genotyped via allelic discrimination technique (FIG. 1A). […] Finally, we engineered a tractable MLL-AF9-driven mouse model of AML in which Mtfhr genotype status was either homozygous wild-type, heterozygous or homozygous knockout.

MLL-AF9-driven AML cells = experiment: MLL-AF9-driven AML mouse models treated with JQ1; format: in vivo, mice
Description: (E) MLL-AF9-transformed GFP-positive granulomonocytic progenitors (Sca-1^−/c-KIT^+/CD16/32^+/CD34^+/MPO^+) from homozygous wild-type […], or heterozygous (+/−) and homozygous (−/−) Mthfr knockout mice transplanted into sublethally-irradiated recipient mice before treatment with vehicle or 50 mg/kg JQ1 for 7 days. Proportion of GFP-positive MLL-AF9 leukemic cells in bone marrow from five mice per group. p-value by Mann-Whitney test. n.s, nonsignificant (p>0.05). Error bars represent mean±SD.
The French National Committee on Animal Care reviewed and approved all mouse experiments. Sample size was influenced by historical penetrance and consistency of MLL-AF9-driven in vivo models. For the Mthfr knockout AML mouse model, BALB/cJ mice were purchased from Charles River Laboratories. Each recipient mouse was transplanted with transduced Scal^−/c-Kit^+ myeloid progenitors sorted from the total bone marrow of three donor mice. Approximatively two months post-transplantation, sick mice were euthanized and bone marrow harvested before flow-based sorting of MLL-AF9-positive granulo-monocytic bone marrow progenitor population (GFP^+/Sca-1^−/c-Kit^+/Cd16/32^+/Cd34^+) and PCR-based confirmation of Mthfr knockout status. 0.2×10^6 MLL-AF9-positive Mthfr^+/+, Mthfr^+/−, and Mthfr^−/− cells were then reinjected into sublethally-irradiated secondary recipient mice treated daily by intraperitoneal injection with 50 mg/kg JQ1 (10% DMSO+90% G5W).
For folate starvation experiments, 5-week old male C57BL/6J mice were given regular or folate-deficient casein-reconstituted diet (Safe-Diets) for 4 weeks before sublethal irradiation (350cGy) and injection with 0.2×10^6 MLL-AF9-positive L-GMP cells before treatment with 35 mg/kg or 50 mg/kg JQ1 (10% DMSO+90% G5W) for 7 days. For Mthfr knockdown experiments, MLL-AF9-positive L-GMP cells were infected with a control or two Mthfr-directed shRNAs cloned into an MSCV-miRE-SV40-eBFP vector modified from the MSCV-miRE_shBRD9_561-SV40-GFP vector (Addgene, #75139) by substitution of the GFP cassette with an eBFP fluorescent marker. 0.2×10^6 infected cells were injected into sublethally-irradiated 5-week old C57BL/6J recipient mice. Additional information is provided in the supplementary material and methods section.

[3] = test system: AML cell lines (KG1a, IMS-M2, and U937); experiment: AML cell line sensitivity to BET/CDK7 inhibitors in standard versus nutrient-deprived (folic acid-starved) media; format: cell-based, human; settings: folic acid withdrawal
Excerpt: BET proteins interact with acetylated histones in active regulatory domains (promoters and enhancers) and promote RNA PolII activity. Despite the general nature of this mechanism, BET inhibitors have shown selective effects on gene expression through suppression of […] and MYC-related transcriptional programs (8, 11, 12). Two cohorts of AML patients (TCGA-LAML, n=198 and GSE14468, n=526) were queried with multiple gene sets related to MYC transcriptional programs as well as vitamin, amino acid, and nucleotide metabolism using single sample Gene Set Enrichment Analysis (ssGSEA). Correlation between gene sets was queried across all patients from each cohort to pinpoint potential crosstalk between active MYC programs and specific metabolic pathways (data not shown).
as §2

BRD4 = BRD4 (Homo sapiens, UniProt O60885); settings: previous studies; cited from earlier work
OCI-AML2 cells = experiment: Pooled CRISPR/Cas9 epigenetic screen with JQ1; format: cell-based, human
Description: OCI-AML2 cells were seeded into six-well plates at a density of 3×10^6 cells per well and transduced at MOI 0.2. […] 24 hours post-transduction, cells were replated into puromycin-containing media. A sample was collected at 48 hours post-puromycin to confirm library coverage in the transduced population. Transduced cells were expanded in puromycin for 10 days before drug, when the transduced population was split into vehicle (DMSO) and JQ1 conditions and maintained for two weeks. Deep sequencing was performed by Hudson Alpha Institute for Biotechnology on an Illumina Nextseq platform (75 bp, single-ended) to identify differences in library composition. Additional information is provided in the supplementary material and methods section.

CDK7 = CDK7 (Homo sapiens, UniProt P50613); settings: Table 1, Kwiatkowski et al. (2014); cited from earlier work
Sequence of CDK7 (P50613 whole entry): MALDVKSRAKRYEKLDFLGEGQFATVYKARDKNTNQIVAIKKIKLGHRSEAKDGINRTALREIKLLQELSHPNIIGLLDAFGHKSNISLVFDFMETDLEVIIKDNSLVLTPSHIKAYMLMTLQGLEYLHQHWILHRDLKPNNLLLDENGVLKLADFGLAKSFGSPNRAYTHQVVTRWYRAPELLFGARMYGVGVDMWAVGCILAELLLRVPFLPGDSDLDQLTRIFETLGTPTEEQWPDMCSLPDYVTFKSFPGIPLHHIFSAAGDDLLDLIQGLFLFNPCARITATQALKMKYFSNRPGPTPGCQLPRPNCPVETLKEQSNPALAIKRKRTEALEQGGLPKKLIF
Sequence of CDK7 (P51946 whole entry partner): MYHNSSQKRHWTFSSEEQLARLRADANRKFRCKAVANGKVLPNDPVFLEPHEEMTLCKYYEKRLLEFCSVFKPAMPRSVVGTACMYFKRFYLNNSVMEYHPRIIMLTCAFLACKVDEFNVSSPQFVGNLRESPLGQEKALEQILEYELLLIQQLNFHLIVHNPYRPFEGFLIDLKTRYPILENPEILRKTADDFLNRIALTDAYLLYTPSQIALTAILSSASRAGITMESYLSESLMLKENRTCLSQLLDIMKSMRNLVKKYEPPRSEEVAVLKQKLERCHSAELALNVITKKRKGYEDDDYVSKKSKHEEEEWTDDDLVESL

[4] = test system: KG1a, U937 and IMS-M2 cells; experiment: OTX015 sensitivity with SAH supplementation; format: cell-based, human
Excerpt: We next used metabolism profiling to characterize the effect of folate pathway alteration on global cell metabolism in U937 cells. […] ShRNA-mediated MTHFR depletion induced a similar increase in SAH levels as that observed upon folate withdrawal in AML cell lines U937 and IMS-M2 (data not shown).

With CN1c2c(nc(N)[nH]c2=O)NCC1CNc1ccc(C(=O)N[C@@H](CCC(=O)O)C(=O)O)cc1 (stereo partly drawn) [5-CH3 THF, 5-methyltetrahydrofolate] as the molecule, how does the “effect on cytotoxicity of OTX015 (fold change of IC50, 5 days)” value (IMS-M2 and U937 cells) read?
The value was “restored a cytotoxic effect of OTX015”.

And the “effect on response to OTX015 (fold change of IC50, 5 days)” value [1]?
The value was “substantially enhanced response to OTX015”.

And the “effect on response to OTX015 (IC90, 5 days)” value [2]?
Its value is “sensitized to OTX015”.

Which leukemic burden (MLL-AF9-driven AML cells; animals transplanted with Mthfr-depleted (shRNA) blasts, JQ1 treatment) does the source give for Cc1sc2c(c1C)C(c1ccc(Cl)cc1)=N[C@@H](CC(=O)OC(C)(C)C)c1nnc(C)n1-2 [JQ1, tert-butyl 2-[(9S)-7-(4-chlorophenyl)-4,5,13-trimethyl-3-thia-1,8,11,12-tetrazatricyclo[8.3.0.02,6]trideca-2(6),4,7,10,12-pentaen-9-yl]acetate] here?
Its leukemic burden is “not significantly decreased”.

And the “sensitivity of leukemic burden to JQ1” value (MLL-AF9-driven AML cells; control shRNA counterparts)?
Its value is “striking sensitivity”.

And the “sensitivity to JQ1 (GFP-positive MLL-AF9 leukemic cells in bone marrow)” value (MLL-AF9-driven AML cells; loss of a single copy of Mthfr, 50 mg/kg JQ1 for 7 days)?
The value was “sufficient to attenuate sensitivity”.

And the anti-leukemic activity (MLL-AF9-driven AML cells; mice fed no folate diet versus regular diet)?
The anti-leukemic activity was “markedly attenuated”.

What about the “overall survival after JQ1 treatment” value (MLL-AF9-driven AML cells; mice injected with Mthfr-depleted cells versus control leukemic cells) of the same molecule?
The value was “significantly shorter”.

What about the “AML cell line sensitivity” value [3] of the same molecule?
Its value is “significantly dampened”.

What about the “inhibition of BRD4” value (BRD4) of the same molecule?
Its value is “potently inhibited”.

And the “effect of gene knockout on cells treated with JQ1” value (OCI-AML2 cells; knockout of EED, EIMT1 and SETDB1, 2 weeks)?
Its value is “rescued cells from JQ1”.

And the “effect of gene knockout on cells treated with JQ1” value (OCI-AML2 cells; knockout of KDMIA, JMJDIC and KDM3B)?
Its value is “enhanced cell sensitivity to JQ1”.

With CC(C)CC(=O)Nc1[nH]nc2c1CN(C(=O)C1CCN(C)CC1)C2(C)C [PHA-793887] as the molecule, how does the “inhibitory activity toward CDK7 relative to other CDKs” value (CDK7) read?
Its value is “lower inhibitory activity toward CDK7 than toward at least one other CDK”.

For CC[C@H](CO)Nc1nc(NCc2ccccc2)c2ncn(C(C)C)c2n1 [Roscovitine], which “inhibitory activity toward CDK7 relative to other CDKs” value (CDK7) is on record?
The value was “lower inhibitory activity toward CDK7 than toward at least one other CDK”.

With Nc1ncnc2c1ncn2[C@@H]1O[C@H](CSCC[C@H](N)C(=O)O)[C@@H](O)[C@H]1O [SAH, S-adenosylhomocysteine] as the molecule, how does the “cytoprotective effect of SAH against OTX015” value ([4]; methionine depleted 300-fold, IMS-M2 cells) read?
The value was “enhanced the cytoprotective effect of SAH against OTX015”.

What about the “resistance to OTX015 with SAH” value ([4]; methionine depleted, U937 and KG1a cells) of the same molecule?
Its value is “even greater resistance to OTX015 than folate restriction alone”.

For CN(C)C/C=C/C(=O)Nc1ccc(C(=O)Nc2cccc(Nc3ncc(Cl)c(-c4c[nH]c5ccccc45)n3)c2)cc1 [THZ-1], which “AML cell line sensitivity” value [3] is on record?
Its value is “significantly dampened”.

For CN1CC[C@H](c2c(O)cc(O)c3c(=O)cc(-c4ccccc4Cl)oc23)[C@H](O)C1 [flavopiridol], which “inhibitory activity toward CDK7 relative to other CDKs” value (CDK7) is on record?
Its value is “lower inhibitory activity toward CDK7 than toward at least one other CDK”.
